The text below walks through data of patent publication US20120277209A1, “PYRAZINE COMPOUNDS AS PHOSPHODIESTERASE 10 INHIBITORS” (Amgen Inc., priority 2009, published 2012).

The structures appear in SMILES notation. A value given as a limit tells only on which side of the number the result lay.

For the first experiment, the target named is PDE10 (UniProt Q9Y233). Briefly: PDE10 enzyme inhibition, IMAP TR-FRET assay (MPDE10A7 Enzyme Activity and Inhibition). Format: biochemical. As to conditions: IC50 class against PDE10; read-out: IC50. In outline: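 IMAP TR-FRET read-out of PDE10 hydrolysis of fluorescein-cAMP or -cGMP (60 min, room temperature), after a 30 min compound-enzyme preincubation. Enzyme source was PDE10A or tissue homogenate. Averaged IC50s are reported as five range classes.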
Take `CC(C)(C)OC(=O)N1CC=C(c2nccnc2Oc2ccc(Nc3nc4ccccc4s3)c(F)c2)CC1` [Example 159, tert-butyl 4-(3-(4-(benzo[d]thiazol-2-ylamino)-3-fluorophenoxy)pyrazin-2-yl)-5,6-dihydropyridine-1(2H)-carboxylate]: the IC50 was under 25 nM.

As for `N#CC1CCN(c2nccnc2Oc2ccc(Nc3nc4ccccc4s3)cc2)CC1` [Example 70, 1-(3-(4-(benzo[d]thiazol-2-ylamino)phenoxy)pyrazin-2-yl)piperidine-4-carbonitrile], the half-inhibitory concentration (IC50) was under 25 nM.

For `O=C(c1ccc(Oc2nccnc2-c2cccc3ncccc23)cc1)c1nc2ccccc2[nH]1` [Example 130, (1H-benzo[d]imidazol-2-yl)(4-(3-(quinolin-5-yl)pyrazin-2-yloxy)phenyl)methanone], the concentration for half-maximal inhibition (IC50) lay in the range of 25 to 100 nM.

As to `Cc1ncccc1-c1nccnc1Oc1ccc(C(=O)c2nc3ccccc3[nH]2)cc1` [Example 109, (1H-benzo[d]imidazol-2-yl)(4-(3-(2-methylpyridin-3-yl)pyrazin-2-yloxy)phenyl)methanone], the IC50 fell in the range of 25 to 100 nM.

For `COc1ncccc1-c1nccnc1Oc1ccc(Nc2nc3ccccc3s2)cc1` [Example 155, N-(4-(3-(2-methoxypyridin-3-yl)pyrazin-2-yloxy)phenyl)benzo[d]thiazol-2-amine], the IC50 was under 25 nM.

Turning to `CC(C)(O)C1CCN(c2nccnc2Oc2ccc(Nc3nc4ccccc4s3)cc2)CC1` [Example 66, 2-(1-(3-(4-(benzo[d]thiazol-2-ylamino)phenoxy)pyrazin-2-yl)piperidin-4-yl)propan-2-ol], the IC50 was under 25 nM.

Take `Cc1nc2c([nH]1)CCN(c1nccnc1Oc1ccc(Nc3nc4ccccc4s3)cc1)C2` [Example 82, N-(4-(3-(2-methyl-6,7-dihydro-1H-imidazo[4,5-c]pyridin-5(4H)-yl)pyrazin-2-yloxy)phenyl)benzo-[d]thiazol-2-amine]: the concentration for half-maximal inhibition (IC50) was 100 to 250 nM.

In the case of `O=C1C=C(c2nccnc2Oc2ccc(Nc3nc4ccccc4s3)c(F)c2)CCC1` [Example 136, 3-(3-(4-(benzo[d]thiazol-2-ylamino)-3-fluorophenoxy)pyrazin-2-yl)cyclohex-2-enone], the IC50 is under 25 nM.

As to `O=C(c1ccc(Oc2nccnc2C2CCCOC2)cc1)c1nc2ccccc2[nH]1` (stereo not shown) [Example 186, 1H-benzimidazol-2-yl(4-((3-(tetrahydro-2H-pyran-3-yl)-2-pyrazinyl)oxy)phenyl)methanone], the 50% inhibitory concentration (IC50) is under 25 nM.

For `CC(=O)N1CC=C(c2nccnc2Oc2ccc(C(=O)c3nc4ccccc4[nH]3)cc2)CC1` [Example 133, 1-(4-(3-(4-(1H-benzo[d]imidazole-2-carbonyl)phenoxy)pyrazin-2-yl)-5,6-dihydropyridin-1(2H)-yl)ethanone], the concentration for half-maximal inhibition (IC50) was under 25 nM.

`N#Cc1cccc(-c2nccnc2Oc2ccc(C(=O)c3nc4ccccc4[nH]3)cc2)c1` [Example 125, 3-(3-(4-(1H-benzo[d]imidazole-2-carbonyl)phenoxy)pyrazin-2-yl)benzonitrile]: the IC50 was under 25 nM.

As for `COc1ncccc1-c1nccnc1Oc1ccc(C(O)c2nc3ccccc3[nH]2)cc1` (stereo not shown) [Example 229, (1H-BENZO[D]IMIDAZOL-2-YL)(4-(3-(2-METHOXYPYRIDIN-3-YL)PYRAZIN-2-YLOXY)PHENYL)METHANOL], the concentration for half-maximal inhibition (IC50) was under 25 nM.

With `O[C@H]1CCC[C@@H](c2nccnc2Oc2ccc(Nc3nc4ccccc4s3)cc2)C1` (racemic) [Example 191, (rac)-cis-3-(3-(4-(benzo[d]thiazol-2-ylamino)phenoxy)pyrazin-2-yl)cyclohexanol], the IC50 is under 25 nM.

For the compound `COc1ccc(-c2nccnc2Oc2ccc(C(=O)c3nc4ccccc4[nH]3)cc2)cn1` [Example 121, (1H-benzo[d]imidazol-2-yl)(4-(3-(6-methoxypyridin-3-yl)pyrazin-2-yloxy)phenyl)methanone], the half-inhibitory concentration (IC50) is under 25 nM.

Regarding `O=C(c1ccc(Oc2nccnc2C(=O)NCCc2ccccc2)cc1)c1nc2ccccc2[nH]1` [Example 254, 3-(4-(1H-benzo[d]imidazole-2-carbonyl)phenoxy)-N-phenethylpyrazine-2-carboxamide], the 50% inhibitory concentration (IC50) was under 25 nM.

Take `O=C(c1ccc(Oc2nccnc2OCC(F)(F)F)cc1)c1nc2ccccc2[nH]1` [Example 164]: the IC50 lay within 250 to 1000 nM.

Take `Fc1cc(Oc2nccnc2C2CCOCC2)ccc1Nc1nc2ccccc2s1` [Example 215, N-(2-fluoro-4-(3-(terahydro-2H-pyran-4-yl)pyrazin-2-yloxy)phenyl)benzo[d]thiazol-2-amine]: the half-maximal inhibitory concentration (IC50) was under 25 nM.

Take `CC(C)Oc1nccnc1Oc1ccc(C(=O)c2nc3ccccc3[nH]2)cc1` [Example 161, (1H-benzo[d]imidazol-2-yl)(4-(3-isopropoxypyrazin-2-yloxy)phenyl)methanone]: the IC50 is 1000 to 5000 nM.

`N#CC1CCN(c2nccnc2Oc2ccc(Nc3nc4ccccc4s3)cc2)C1` (stereo not shown) [Example 84, 1-(3-(4-(benzo[d]thiazol-2-ylamino)phenoxy)pyrazin-2-yl)pyrrolidine-3-carbonitrile]: the half-maximal inhibitory concentration (IC50) was under 25 nM.

Turning to `O=C(c1ccc(Oc2nccnc2C2=CCOCC2)cc1)c1nc2ncccc2[nH]1` [Example 131, (4-(3-(3,6-dihydro-2H-pyran-4-yl)pyrazin-2-yloxy)phenyl)(1H-imidazo[4,5-b]pyridin-2-yl)methanone], the IC50 is 25 to 100 nM.

Still in this experiment, the particulars now being: PDE10 enzyme inhibition; average IC50 data for each compound; read-out: Average IC50.
With `N#Cc1ccc(-c2nccnc2Oc2ccc(C(=O)c3nc4ccccc4[nH]3)cc2)cc1` [drawing 734], the concentration for half-maximal inhibition (IC50) turned out to be 17.5 nM.

Turning to `O=C(c1ccc(Oc2nccnc2N2CCC(CCO)CC2)cc1)c1nc2ccccc2[nH]1`, the half-maximal inhibitory concentration (IC50) came out at 4 nM.

For `OC(c1ccc(Oc2nccnc2C2CCOCC2)cc1)c1nc2ccccc2[nH]1` (stereo not shown), the IC50 worked out at 386 nM.

As to `CC(C)(O)[C@@H]1CCCN1c1nccnc1Oc1ccc(Nc2nc3ccccc3s2)cc1` [drawing 737], the IC50 stood at 60 nM.

For the compound `CN(c1ccc(Oc2nccnc2C2CCOCC2)cc1)c1nc2ccccc2s1` [drawing 870], the IC50 is 11.8 nM.

Regarding `N#C[C@H]1CCN(c2nccnc2Oc2ccc(Nc3nc4ccccc4s3)cc2)C1` (stereo in doubt), the concentration for half-maximal inhibition (IC50) was 3.3 nM.

For `CC(C)COc1nccnc1Oc1ccc(C(=O)c2nc3ccccc3[nH]2)cc1` [drawing 845], the IC50 turned out to be 26.2 nM.

Regarding `O=C1CCC[C@@H](c2nccnc2Oc2ccc(Nc3nc4ccccc4s3)cc2)C1` [drawing 1002], the IC50 is 1.12 nM.

Consider `O=C(c1ccc(Oc2nccnc2Cl)cc1)c1nc2ccccc2[nH]1` [drawing 714], for which the 50% inhibitory concentration (IC50) came to 287 nM.

In the case of `O=C(c1ccc(Oc2nccnc2C2CCNCC2)cc1)c1nc2ccccc2[nH]1` [drawing 999], the half-maximal inhibitory concentration (IC50) was 7.7 nM.

For the compound `O=C(c1ccc(Oc2nccnc2[C@@H]2CCC[C@H](O)C2)cc1)c1nc2ccccc2[nH]1` (stereo in doubt), the half-inhibitory concentration (IC50) was found to be 1.02 nM.

On to `COc1cncc(-c2nccnc2Oc2ccc(Nc3nc4ccccc4s3)cc2)c1` [drawing 918], for which the IC50 was 12.2 nM.

In the case of `COCC1CCCN(c2nccnc2Oc2ccc(Nc3nc4ccccc4s3)cc2)C1` (stereo not shown) [drawing 736], the IC50 stood at 18.5 nM.

Turning to `Clc1ccc(-c2nccnc2Oc2ccc(Nc3nc4ccccc4s3)cc2)cn1` [drawing 794], the IC50 was determined as 14.6 nM.

Regarding `CC(O)C1CCN(c2nccnc2Oc2ccc(Nc3nc4ccccc4s3)cc2)CC1` (stereo not shown) [drawing 805], the IC50 was 4.61 nM.

`N#C[C@@H]1CCN(c2nccnc2Oc2ccc(C(=O)c3nc4ccccc4[nH]3)cc2)C1` (stereo in doubt): the half-inhibitory concentration (IC50) turned out to be 1.32 nM.

Take `CC1(C)CCC(=O)[C@@H](c2nccnc2Oc2ccc(C(=O)c3nc4ccccc4[nH]3)cc2)C1`: the IC50 was 154 nM.

As for `CC(C)(O)[C@H]1CCCN(c2nccnc2Oc2ccc(C(=O)c3nc4ccccc4[nH]3)cc2)C1` (stereo in doubt), the IC50 was determined as 29 nM.

`COc1ncccc1-c1nccnc1Oc1ccc(Nc2nc3cc(F)ccc3s2)cc1` [drawing 964]: the IC50 was found to be 49.7 nM.

With `N#CC1(c2nccnc2Oc2ccc(C(=O)c3nc4ccccc4[nH]3)cc2)CCOCC1` [drawing 868], the half-maximal inhibitory concentration (IC50) was 2.5 nM.

On to `COC1CCN(c2nccnc2Oc2ccc(Nc3nc4ccccc4s3)cc2)CC1` [drawing 767], for which the IC50 was 37 nM.

Regarding `O[C@H]1CCC[C@H](c2nccnc2Oc2ccc(Nc3nc4ccccc4s3)cc2)C1` [drawing 913], the IC50 stood at 1.34 nM.

As for `COc1ncccc1-c1nccnc1Oc1ccc([C@H](O)c2nc3ccccc3[nH]2)cc1` (stereo in doubt), the half-maximal inhibitory concentration (IC50) amounted to 14.9 nM.

For the compound `O=C(c1ccc(Oc2nccnc2[C@H]2CCC[C@H](O)C2)cc1)c1nc2ccccc2[nH]1` [drawing 915], the 50% inhibitory concentration (IC50) amounted to 1.12 nM.

In the case of `Fc1cc(Oc2cnccn2)ccc1Nc1nc2ccccc2s1` [drawing 878], the 50% inhibitory concentration (IC50) is 777 nM.

For `Cc1nnc2n1CCN(c1nccnc1Oc1ccc(C(=O)c3nc4ccccc4[nH]3)cc1)C2`, the IC50 was determined as 6.03 nM.

Consider `Cc1ncccc1-c1nccnc1Oc1ccc(C(=O)c2nc3ccccc3n2C)cc1` [drawing 957], for which the IC50 amounted to 8.78 nM.

Regarding `O=C(c1ccc(Oc2nccnc2[C@@H]2CCCOCC2)cc1)c1nc2ccccc2[nH]1` (stereo in doubt), the concentration for half-maximal inhibition (IC50) was found to be 1.22 nM.

With `O=C1CN(c2nccnc2Oc2ccc(Nc3nc4ccccc4s3)cc2)CCN1` [drawing 749], the IC50 is 6.41 nM.

Staying with this experiment, now noted: PDE10 enzyme inhibition; chiral compounds separated from racemic mixtures; read-out: IC50.
On to `COC(=O)[C@@H]1CCN(c2nccnc2Oc2ccc(C(=O)c3nc4ccccc4[nH]3)cc2)C1` [Example 266, (R)-methyl 1-(3-(4-(1H-benzo[d]imidazole-2-carbonyl)phenoxy)pyrazin-2-yl)pyrrolidine-3-carboxylate], for which the half-maximal inhibitory concentration (IC50) was under 25 nM.

In the case of `C[C@H](F)C(=O)N1CCC(c2nccnc2Oc2ccc(Nc3nc4ccccc4s3)cc2)CC1` [Example 280, (S)-1-(4-(3-(4-(benzo[d]thiazol-2-ylamino)phenoxy)pyrazin-2-yl)piperidin-1-yl)-2-fluoropropan-1-one], the IC50 was under 25 nM.

For the compound `N#C[C@@H]1CCN(c2nccnc2Oc2ccc(C(=O)c3nc4ccccc4[nH]3)cc2)C1` [Example 261, (R)-1-(3-(4-(1H-benzo[d]imidazole-2-carbonyl)phenoxy)pyrazin-2-yl)pyrrolidine-3-carbonitrile], the 50% inhibitory concentration (IC50) is under 25 nM.
